Results reported in US11479528B2, “Heat shock protein 90 inhibitors” (TAIPEI MEDICAL UNIVERSITY, priority 2017, dated 2022).
Like-named read-outs stand apart in the source and are kept apart here.

Experiments:
colorectal HCT116 = assay: Sulforhodamine B (SRB) assay, colorectal HCT116; format: cell-based; settings: Homo sapiens
Protocol: (§1) Human cancer cells were purchased from the American Type Culture Collection (Manassas, Va., USA). These cell lines were cultured in RPMI 1640 medium or DMEM supplemented with 10% FBS (v/v) and pencillin (100 U/mL)/streptomycin (100 ug/mL)/amphotericin B (0.25 ug/mL). Cultures were maintained at 37° C. in a humidified atmosphere of 5% CO2/95% air.
(§2) Cells were seeded in 96-well plates in medium with 5% fetal bovine serum. After 24 h, cells were fixed with 10% trichloroacetic acid to represent cell population at the time of drug addition (T0). After additional incubation of DMSO or drugs for 48 h, cells were fixed with 10% trichloroacetic acid and sulforhodamine B at 0.4% (w/v) in 1% acetic acid was added to stain cells. Unbound sulforhodamine B was washed out by 1% acetic acid and sulforhodamine B-bound cells were solubilized with 10 mmol/L Trizma base. The absorbance was read at a wavelength of 515 nm. Using the following absorbance measurements, such as time zero (T0), control growth (C), and cell growth in the presence of the drug (Tx), the percentage growth was calculated at each of the compound concentrations levels. Percentage growth inhibition was calculated as […].

prostate PC3 = assay: Sulforhodamine B (SRB) assay, prostate PC3; format: cell-based; settings: Homo sapiens, Table 1, 48 h
Protocol: as §1, §2

lung A549 = assay: Sulforhodamine B (SRB) assay, lung A549; format: cell-based, human; settings: Homo sapiens
Protocol: Human cancer cells were purchased from the American Type Culture Collection (Manassas, Va., USA).
Cells were seeded in 96-well plates in medium with 5% fetal bovine serum. […] Unbound sulforhodamine B was washed out by 1% acetic acid and sulforhodamine B-bound cells were solubilized with 10 mmol/L Trizma base. […] Using the following absorbance measurements, such as time zero (T0), control growth (C), and cell growth in the presence of the drug (Tx), the percentage growth was calculated at each of the compound concentrations levels. Percentage growth inhibition was calculated as […].

HUVEC cells = assay: Sulforhodamine B (SRB) assay, HUVEC; settings: Homo sapiens, HUVEC, 48 h, read-out: GI50 HUVEC
Protocol: as §1, §2

[1] = Pharmacokinetic profiles in rat; settings: in vivo
Protocol: A pharmacokinetic study was conducted to evaluate the pharmacokinetic properties of compounds of formula (I).

HSP90 α protein = HSP90 α protein (Homo sapiens, UniProt P07900); assay: HSP90 ATP-binding / fluorescence polarization competition assay (enzyme inhibition)
Protocol: To assess the inhibition of HSP90 activity within a cellular context, cells were treated with certain substituted aromatic compounds of formula (I) and the inhibition of HSP90 ATP-binding activity in cells was determined by using an ATP pull-down assay. Cells were treated with the compounds for 24 hours and then lysed in TNESV buffer (50 mM Tris, 2 mM EDTA, […], 1 mM activated sodium orthovanadate, 25 mM NaF, 1% Triton X-100 [pH 7.5]) for 30 min at 4° C. Lysates were spun for 30 min at 12000 rpm at 4° C. Protein (200 ug) was incubated with conditioned γ-ATP-polyacrylamide resin in incubation buffer (10 mM Tris-HCl, 50 mM KCl, 5 mM MgCl2, 20 mM Na2MoO4, 0.01% Nonidet P-40) overnight at 4° C., rotating. The resin was then washed four times with incubation buffer. Bound proteins were isolated by boiling with SDS buffer. For the competition studies, fluorescence polarization assays were performed under the following conditions: each 96-well plate contained 5 nM fluorescent GM (geldanamycin), 30 nM HSP90 α protein, and tested inhibitor in a final volume of 100 uL. For each assay, background wells (buffer only), tracer controls (free, fluorescent GMonly), and bound GM controls (fluorescent GM in the presence of HSP90) were included on each assay plate. The fraction of tracer bound to HSP90 was correlated to the mP value and plotted against log 10 values of competitor concentrations. The inhibitor concentration at which 50% of bound GM was displaced was obtained by fitting the data.

liver Hep3B = assay: Sulforhodamine B (SRB) assay, liver Hep3B; format: cell-based; settings: Homo sapiens, 48 h, read-out: GI50 Liver Hep3B
Protocol: as §1, §2

[2] = test system: human colon HCT116 xenograft; assay: Human colon HCT116 xenograft model; settings: 100 mg/kg, po; for TGI, tumor growth inhibition: n = 7-8
Protocol: An in vivo study was conducted to evaluate the efficacy of compounds of formula (I) in suppressing tumor growth in a human colon HCT116 xenograft model.

breast MDA-MB-231 = assay: Sulforhodamine B (SRB) assay, breast MDA-MB-231; format: cell-based; settings: Homo sapiens, read-out: GI50 Breast MDA-MB-231
Protocol: as §1, §2

[3] = Maximum tolerated dose and therapeutic index in vivo
[4] = HCT-116, Table 1, SRB, 48 h, read-out: GI50 Colorectal HCT116
[5] = A549, Table 1, SRB, 48 h, read-out: GI50 Lung A549

Compound: CC(C)c1cc(C(=O)N(C)c2cccc3cccnc23)c(O)cc1O [Compound 31b, 2,4-dihydroxy-5-isopropyl-N-methyl-N-(quinolin-8-yl)benzamide]
- GI50 (colorectal HCT116; [4]): > 10 µM
- GI50 (prostate PC3): 8.93 ± 0.25 µM
- GI50 (lung A549; [5]): 8.7 ± 0.25 µM

Compound: CCN(C(=O)c1cc(C(C)C)c(O)cc1O)c1ccncc1 [Compound 19b, N-ethyl-2,4-dihydroxy-5-isopropyl-N-(pyridin-4-yl)benzamide]
- GI50 (colorectal HCT116; [4]): 0.64 ± 0.41 µM
- GI50 (colorectal HCT116; HCT-116, Table 2, SRB, read-out: HCT116 GI50): 0.64 ± 0.41 µM
- GI50 (HUVEC cells): < 0.1 µM
- Vd ([1]; iv, 2 mg/kg): 12 ± 8.9 L/kg
- AUC(0-inf) ([1]; iv, 2 mg/kg, AUC(0-inf), IV (2 mg/kg)): 442 ± 49 ng·h/mL
- clearance ([1]; iv, 2 mg/kg, CL, IV (2 mg/kg)): 75 ± 4.8 mL/min/kg
- half-life ([1]; iv, 2 mg/kg, T1/2, rat, IV (2 mg/kg)): 8.1 ± 4.7 h
- Cmax ([1]; po, 20 mg/kg): 51 ± 9 ng/mL
- Tmax ([1]; po, 20 mg/kg): 0.3 ± 0.1 h
- bioavailability ([1]; po, 20 mg/kg): 11%
- AUC(0-inf) ([1]; po, 20 mg/kg, AUC(0-inf), PO (20 mg/kg)): 485 ± 103 ng·h/mL
- half-life ([1]; po, 20 mg/kg, T1/2, rat, PO (20 mg/kg)): 11 ± 7.6 h
- IC50 (HSP90 α protein; 5 nM fluorescent GM, 30 nM HSP90 α, read-out: HSP90 IC50 enzyme inhibition): 0.109 ± 0.00535 µM
- GI50 (liver Hep3B; Table 1, SRB): 0.1 ± 0.01 µM
- GI50 (lung A549; [5]): 0.12 ± 0.01 µM
- GI50 (lung A549; A549, Table 2, SRB, read-out: A549 GI50): 0.12 ± 0.01 µM
- TGI, tumor growth inhibition ([2]; qd): 29.1%
- GI50 (breast MDA-MB-231; MDA-MB-231, Table 1, SRB, 48 h): 0.08 ± 0.01 µM

Compound: CC(C)c1cc(C(=O)N(C)c2cccc3ncccc23)c(O)cc1O [Compound 29b, 2,4-dihydroxy-5-isopropyl-N-methyl-N-(quinolin-5-yl)benzamide]
- GI50 (colorectal HCT116; [4]): > 10 µM
- GI50 (prostate PC3): > 10 µM
- GI50 (lung A549; [5]): > 10 µM

Compound: CC(C)c1cc(C(=O)Nc2ncnc3c2ccn3C)c(O)cc1O [Compound 27a, 2,4-dihydroxy-5-isopropyl-N-(7-methyl-7H-pyrrolo[2,3-d]pyrimidin-4-yl)benzamide]
- GI50 (colorectal HCT116; [4]): > 10 µM
- GI50 (prostate PC3): > 10 µM

Compound: CC(C)c1cc(C(=O)N(C)c2ccc3c(c2)CCCN3C)c(O)cc1O [Compound 33c, 2,4-dihydroxy-5-isopropyl-N-methyl-N-(1-methyl-1,2,3,4-tetrahydroquinolin-6-yl)benzamide]
- GI50 (colorectal HCT116; [4]): 6.51 ± 0.09 µM
- GI50 (prostate PC3): 8.5 ± 0.45 µM

Compound: CC(C)c1cc(C(=O)N(C)c2ccc3c(c2)CCCN3)c(O)cc1O [Compound 33a, 2,4-dihydroxy-5-isopropyl-N-methyl-N-(1,2,3,4-tetrahydroquinolin-6-yl)benzamide]
- GI50 (colorectal HCT116; [4]): 5.79 ± 0.11 µM
- GI50 (prostate PC3): 7.66 ± 0.42 µM

Compound: CC(C)c1cc(C(=O)N(C)c2ncnc3c2ccn3C)c(O)cc1O [Compound 27b, 2,4-dihydroxy-5-isopropyl-N-methyl-N-(7-methyl-7H-pyrrolo[2,3-d]pyrimidin-4-yl)benzamide]
- GI50 (colorectal HCT116; [4]): 8.96 ± 0.18 µM
- GI50 (prostate PC3): 8.49 ± 0.49 µM

Compound: CCN(C(=O)c1cc(C(C)C)c(O)cc1O)c1cc(C)nc2ccccc12 [Compound 32c, N-ethyl-2,4-dihydroxy-5-isopropyl-N-(2-methylquinolin-4-yl)benzamide]
- GI50 (colorectal HCT116; [4]): 5.99 ± 0.3 µM
- GI50 (prostate PC3): 6.3 ± 0.3 µM
- GI50 (lung A549; [5]): 5.67 ± 0.06 µM

Compound: CCN(C(=O)c1cc(C(C)C)c(O)cc1O)c1ccc2c(c1)CCCN2C [Compound 33d, N-ethyl-2,4-dihydroxy-5-isopropyl-N-(1-methyl-1,2,3,4-tetrahydroquinolin-6-yl)benzamide]
- GI50 (colorectal HCT116; [4]): 5.71 ± 0.12 µM
- GI50 (prostate PC3): 8.18 ± 0.46 µM

Compound: CC(C)c1cc(C(=O)N(c2ncnc3c2ccn3C)C(C)C)c(O)cc1O [Compound 27e, 2,4-dihydroxy-N, 5-diisopropyl-N-(7-methyl-7H-pyrrolo[2,3-d]pyrimidin-4-yl)benzamide]
- GI50 (colorectal HCT116; [4]): 8.77 ± 0.1 µM
- GI50 (prostate PC3): > 10 µM

Compound: CCCN(C(=O)c1cc(C(C)C)c(O)cc1O)c1cnc2ccccc2c1 [Compound 28d, 2,4-dihydroxy-5-isopropyl-N-propyl-N-(quinolin-3-yl)benzamide]
- GI50 (colorectal HCT116; [4]): 1.21 ± 0.13 µM
- GI50 (prostate PC3): 2.33 ± 0.04 µM
- GI50 (lung A549; [5]): 1.16 ± 0.1 µM

Compound: CCCN(C(=O)c1cc(C(C)C)c(O)cc1O)c1ncnc2c1ccn2C [Compound 27d, 2,4-dihydroxy-5-isopropyl-N-(7-methyl-7H-pyrrolo[2,3-d]pyrimidin-4-yl)-N-propylbenzamide]
- GI50 (colorectal HCT116; [4]): > 10 µM
- GI50 (prostate PC3): > 10 µM

Compound: CC(C)c1cc(C(=O)Nc2cnc3c(ccn3C)c2)c(O)cc1O [Compound 24b, 2,4-dihydroxy-5-isopropyl-N-(1-methyl-1H-pyrrolo[2,3-b]pyridin-5-yl)benzamide]
- GI50 (colorectal HCT116; [4]): > 10 µM
- GI50 (prostate PC3): > 10 µM
- GI50 (lung A549; [5]): > 10 µM

Compound: CCN(C(=O)c1cc(C(C)C)c(O)cc1O)c1ccc2[nH]ccc2c1 [Compound 20c, N-ethyl-2,4-dihydroxy-N-(1H-indol-5-yl)-5-isopropylbenzamide]
- GI50 (colorectal HCT116; HCT-116, 48 h, read-out: GI50 Colorectal HCT116): 0.37 ± 0.05 µM
- GI50 (colorectal HCT116; HCT-116, read-out: HCT116 GI50): 0.37 ± 0.05 µM
- GI50 (HUVEC cells): < 0.1 µM
- AUC(0-inf) ([1]; iv, 2 mg/kg): 234 ± 114 ng·h/mL
- Vd ([1]; iv, 2 mg/kg): 9 ± 2.8 L/kg
- clearance ([1]; iv, 2 mg/kg): 170 ± 64 mL/min/kg
- half-life ([1]; iv, 2 mg/kg): 1.5 ± 0.5 h
- AUC(0-inf) ([1]; po, 20 mg/kg): 499 ± 38 ng·h/mL
- Cmax ([1]; po, 20 mg/kg): 67 ± 23 ng/mL
- Tmax ([1]; po, 20 mg/kg): 2.7 ± 1.2 h
- bioavailability ([1]; po, 20 mg/kg): 22%
- half-life ([1]; po, 20 mg/kg): 5.9 ± 1.6 h
- IC50 (HSP90 α protein): 0.117 ± 0.00962 µM
- GI50 (liver Hep3B): 0.11 ± 0.02 µM
- TI, Therapeutic Index, ratio of MTD to minimum efficacious dose (MED) ([3]; MTD/MED): 1
- MTD ([3]; in vivo, po): 100 mg/kg
- GI50 (lung A549; A549, 48 h, read-out: GI50 Lung A549): 0.11 ± 0.01 µM
- GI50 (lung A549; A549, read-out: A549 GI50): 0.11 ± 0.01 µM
- Loss of Body ([2]; qd × 7/5 on 2 off, Day 7): −15.4%
- TGI, tumor growth inhibition ([2]; qd × 7/5 on 2 off): 33.1%
- GI50 (breast MDA-MB-231; MDA-MB-231, 48 h): 0.08 ± 0.01 µM

Compound: CCN(C(=O)c1cc(C(C)C)c(O)cc1O)c1ccc2c(c1)CCCN2 [Compound 33b, N-ethyl-2,4-dihydroxy-5-isopropyl-N-(1,2,3,4-tetrahydroquinolin-6-yl)benzamide]
- GI50 (colorectal HCT116; [4]): 5.38 ± 0.1 µM
- GI50 (prostate PC3): 6.01 ± 0.41 µM

Compound: CCN(C(=O)c1cc(C(C)C)c(O)cc1O)c1ncnc2c1ccn2C [Compound 27c, N-ethyl-2,4-dihydroxy-5-isopropyl-N-(7-methyl-7H-pyrrolo[2,3-d]pyrimidin-4-yl)benzamide]
- GI50 (colorectal HCT116; [4]): 3.49 ± 0.15 µM
- GI50 (prostate PC3): 6.68 ± 0.55 µM

Compound: CC(C)c1cc(C(=O)Nc2cnc3[nH]ncc3c2)c(O)cc1O [Compound 26a, 2,4-dihydroxy-5-isopropyl-N-(1H-pyrazolo[3,4-b]pyridin-5-yl)benzamide]
- GI50 (colorectal HCT116; [4]): > 10 µM
- GI50 (prostate PC3): > 10 µM
- GI50 (lung A549; [5]): > 10 µM
